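48-hour exposure; five concentrations; linearly interpolated endpoints. Here, GI50 denotes the concentration required for 50% inhibition of growth. At the TGI there is no net growth.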

These results are taken from PubChem BioAssay (NCI).

Some test systems named below: U251 CNS; UO-31 renal; HOP-62 NSCLC; RXF 393 renal; SN12C renal; SK-OV-3 ovarian; SK-MEL-28 melanoma; 786-0 renal; PC-3 prostate; NCI-H460 lung.
Holding throughout (assay): NCI tumour cell line growth inhibition, 48 h

Consider `COc1cc(C(=O)N2CCN(c3ccccc3OC)CC2)c(N)cc1OCc1ccccc1`, for which the GI50 with U251 CNS was 41.8 µM; with UO-31 renal, 22.4 µM; in the experiment on HOP-62 NSCLC, 34.4 µM; in the experiment on RXF 393 renal it was 25.3 µM; in the experiment on SN12C renal it was 30.5 µM; in the experiment on SK-OV-3 ovarian it was 49.9 µM. Further, the GI50 in the experiment on SK-MEL-28 melanoma is 43.4 µM; in the experiment on 786-0 renal, 45.6 µM; in the experiment with PC-3 prostate, 23.8 µM; in the experiment with NCI-H460 lung it was 33.1 µM. The TGI in the experiment with U251 CNS is greater than 100 µM; in the experiment on UO-31 renal it was greater than 100 µM; with HOP-62 NSCLC, greater than 100 µM; in the experiment on RXF 393 renal it was 85.9 µM; in the experiment on SN12C renal, greater than 100 µM; in the experiment on SK-OV-3 ovarian, greater than 100 µM. The TGI with SK-MEL-28 melanoma, in the experiment with 786-0 renal, in the experiment with PC-3 prostate and in the experiment with NCI-H460 lung was greater than 100 µM in each case.
